Consider 16 compounds from patent US10987359B2, “Oxadiazepinone derivatives and methods of treating hepatitis B infections” (priority 2016, dated 2021).

The assay has as its system HBV. As to the kind of experiment: HBV replication inhibition assay (BDNA assay) in HepG2.2.15 cells. The assay is classed as cell-based. The settings on record: Hepatitis B virus, HepG2.2.15, HBV replication assay (BDNA assay), HepG2.2.15 cells; read-out: DNA EC50. The procedure, abridged: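 Supernatant encapsidated HBV DNA was measured by bDNA after DNase digestion and proteinase K release. Stably HBV-integrated HepG2.2.15 cells had two 3-day compound exposures (0.5% DMSO). Signals were background-subtracted and normalized to DMSO wells, and EC50 was obtained by four-parameter fit.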
`CC(O)CN1CCn2nc3c(c2C(=O)N1C)CN(C(=O)Nc1ccc(F)c(C#N)c1)[C@H](C)C3` (stereo partly drawn) [Compound 223, (9R)—N-(3-Cyano-4-fluorophenyl)-3-(2-hydroxypropyl)-2,9-dimethyl-1-oxo-1,2,3,4,5,8,9,11-octahydro-10H-pyrido[4′,3′:3,4]pyrazolo[5,1-d][1,2,5]triazepine-10-carboxamide]: the EC50 fell in the range of 0.1 to 0.5 µM.
As to `C[C@@H]1Cc2nn3c(c2CN1C(=O)Nc1ccc(F)c(C#N)c1)C(=O)N(C)N(C)CC3` [Compound 224, (R)-N-(3-cyano-4-fluorophenyl)-2,3,9-trimethyl-1-oxo-1,2,3,4,5,8,9,11-octahydro-10H-pyrido[4′,3′:3,4]pyrazolo[5,1-d][1,2,5]triazepine-10-carboxamide], the EC50 lay within 0.001 to 0.1 µM.
The same measure for `C[C@@H]1Cc2nn3c(c2CN1C(=O)Nc1ccc(F)c(C(F)(F)F)c1)C(=O)N(C)N(C)CC3` [Compound 225, (R)-N-(4-fluoro-3-(trifluoromethyl)phenyl)-2,3,9-trimethyl-1-oxo-1,2,3,4,5,8,9,11-octahydro-10H-pyrido[4′,3′:3,4]pyrazolo[5,1-d][1,2,5]triazepine-10-carboxamide]: 0.001 to 0.1 µM.
Take `CN1NC(O)(C(F)(F)F)Cn2nc3c(c2C1=O)CN(C(=O)Nc1ccc(F)c(Cl)c1)CC3` (stereo not shown) [Compound 226, N-(3-chloro-4-fluorophenyl)-4-hydroxy-2-methyl-1-oxo-4-(trifluoromethyl)-1,2,3,4,5,8,9,11-octahydro-10H-pyrido[4′,3′:3,4]pyrazolo[5,1-d][1,2,5]triazepine-10-carboxamide]: the EC50 is above 1 µM.
The same measure for `CN1N=C(CO)Cn2nc3c(c2C1=O)CN(C(=O)Nc1ccc(F)c(Cl)c1)CC3` [Compound 227, N-(3-chloro-4-fluorophenyl)-4-(hydroxymethyl)-2-methyl-1-oxo-1,2,5,8,9,11-hexahydro-10H-pyrido[4′,3′:3,4]pyrazolo[5,1-d][1,2,5]triazepine-10-carboxamide]: 0.001 to 0.1 µM; for `CN1N=C(CO)Cn2nc3c(c2C1=O)CN(C(=O)Nc1ccc(F)c(C#N)c1)CC3` [Compound 228, N-(3-cyano-4-fluorophenyl)-4-(hydroxymethyl)-2-methyl-1-oxo-1,2,5,8,9,11-hexahydro-10H-pyrido[4′,3′:3,4]pyrazolo[5,1-d][1,2,5]triazepine-10-carboxamide]: 0.001 to 0.1 µM; for `CCC(O)C1=NN(C)C(=O)c2c3c(nn2C1)CCN(C(=O)Nc1ccc(F)c(Cl)c1)C3` (stereo not shown) [Compound 229, N-(3-chloro-4-fluorophenyl)-4-(1-hydroxypropyl)-2-methyl-1-oxo-1,2,5,8,9,11-hexahydro-10H-pyrido[4′,3′:3,4]pyrazolo[5,1-d][1,2,5]triazepine-10-carboxamide]: 0.1 to 0.5 µM.
The same measure for `CC(O)C1=NN(C)C(=O)c2c3c(nn2C1)CCN(C(=O)Nc1ccc(F)c(Cl)c1)C3` (stereo not shown) [Compound 230, N-(3-chloro-4-fluorophenyl)-4-(1-hydroxyethyl)-2-methyl-1-oxo-1,2,5,8,9,11-hexahydro-10H-pyrido[4′,3′:3,4]pyrazolo[5,1-d][1,2,5]triazepine-10-carboxamide]: 0.001 to 0.1 µM; for `CN1N=C(C(O)C2CC2)Cn2nc3c(c2C1=O)CN(C(=O)Nc1ccc(F)c(Cl)c1)CC3` (stereo not shown) [Compound 231, N-(3-chloro-4-fluorophenyl)-4-(cyclopropyl(hydroxy)methyl)-2-methyl-1-oxo-1,2,5,8,9,11-hexahydro-10H-pyrido[4′,3′:3,4]pyrazolo[5,1-d][1,2,5]triazepine-10-carboxamide]: 0.1 to 0.5 µM.
With `CC1=NN(C)C(=O)c2c3c(nn2C1)CCN(C(=O)Nc1ccc(F)c(Cl)c1)C3` [Compound 232, N-(3-chloro-4-fluorophenyl)-2,4-dimethyl-1-oxo-1,2,5,8,9,11-hexahydro-10H-pyrido[4′,3′:3,4]pyrazolo[5,1-d][1,2,5]triazepine-10-carboxamide] the figure was 0.001 to 0.1 µM; with `C[C@@H]1Cc2nn3c(c2CN1C(=O)Nc1ccc(F)c(C#N)c1)C(=O)N(C)N=C(CO)C3` [Compound 233, (R)-N-(3-cyano-4-fluorophenyl)-4-(hydroxymethyl)-2,9-dimethyl-1-oxo-1,2,5,8,9,11-hexahydro-10H-pyrido[4′,3′:3,4]pyrazolo[5,1-d][1,2,5]triazepine-10-carboxamide], 0.001 to 0.1 µM.
For `C[C@@H]1Cc2nn3c(c2CN1C(=O)Nc1ccc(F)c(Br)c1)C(=O)N(C)N=C(CO)C3` [Compound 234, (R)-N-(3-bromo-4-fluorophenyl)-4-(hydroxymethyl)-2,9-dimethyl-1-oxo-1,2,5,8,9,11-hexahydro-10H-pyrido[4′,3′:3,4]pyrazolo[5,1-d][1,2,5]triazepine-10-carboxamide], the EC50 fell in the range of 0.001 to 0.1 µM.
With `C[C@@H]1Cc2nn3c(c2CN1C(=O)Nc1ccc(F)c(Cl)c1)C(=O)N(C)N=C(CO)C3` [Compound 235, (R)-N-(3-chloro-4-fluorophenyl)-4-(hydroxymethyl)-2,9-dimethyl-1-oxo-1,2,5,8,9,11-hexahydro-10H-pyrido[4′,3′:3,4]pyrazolo[5,1-d][1,2,5]triazepine-10-carboxamide] the figure was 0.001 to 0.1 µM; with `C[C@@H]1Cc2nn3c(c2CN1C(=O)Nc1ccc(F)c(Br)c1)C(=O)N(C)N=C(COCC(F)F)C3` [Compound 236, (R)-N-(3-bromo-4-fluorophenyl)-4-((2,2-difluoroethoxy)methyl)-2,9-dimethyl-1-oxo-1,2,5,8,9,11-hexahydro-10H-pyrido[4′,3′:3,4]pyrazolo[5,1-d][1,2,5]triazepine-10-carboxamide], 0.001 to 0.1 µM.
With `C[C@@H]1Cc2nn3c(c2CN1C(=O)Nc1ccc(F)c(C#N)c1)C(=O)N(C)N=C(COCC(F)F)C3` [Compound 237, (R)-N-(3-cyano-4-fluorophenyl)-4-((2,2-difluoroethoxy)methyl)-2,9-dimethyl-1-oxo-1,2,5,8,9,11-hexahydro-10H-pyrido[4′,3′:3,4]pyrazolo[5,1-d][1,2,5]triazepine-10-carboxamide] the figure was 0.001 to 0.1 µM.
The same measure for `C[C@@H]1Cc2nn3c(c2CN1C(=O)Nc1ccc(F)c(C(F)(F)F)c1)C(=O)N(C)N=C(COCC(F)F)C3` [Compound 238, (R)-4-((2,2-difluoroethoxy)methyl)-N-(4-fluoro-3-(trifluoromethyl)phenyl)-2,9-dimethyl-1-oxo-1,2,5,8,9,11-hexahydro-10H-pyrido[4′,3′:3,4]pyrazolo[5,1-d][1,2,5]triazepine-10-carboxamide]: 0.1 to 0.5 µM.
